# Assay results published in US12161722B2, “Bifunctional heterocyclic compound having BTK degradation function via ubiquitin proteasome pathway, and use thereof” (KOREA RESEARCH INSTITUTE OF CHEMICAL TECHNOLOGY, priority 2021, dated 2024).
# Key:
# C481S BTK protein = target: T1, C481S BTK protein (Homo sapiens, UniProt Q06187, C481S); experiment: BTK protein degradation assay (Western blotting), C481S BTK; type: cell-based; details: concentration range accounting for 50% degradation of C481S BTK protein, 293T BTK MUT (C481S) cells
# T1 construct: expressed in transfected cells; host or cells: 293T BTK MUT (C481S) cells
# T1 sequence (Q06187 whole entry C481S): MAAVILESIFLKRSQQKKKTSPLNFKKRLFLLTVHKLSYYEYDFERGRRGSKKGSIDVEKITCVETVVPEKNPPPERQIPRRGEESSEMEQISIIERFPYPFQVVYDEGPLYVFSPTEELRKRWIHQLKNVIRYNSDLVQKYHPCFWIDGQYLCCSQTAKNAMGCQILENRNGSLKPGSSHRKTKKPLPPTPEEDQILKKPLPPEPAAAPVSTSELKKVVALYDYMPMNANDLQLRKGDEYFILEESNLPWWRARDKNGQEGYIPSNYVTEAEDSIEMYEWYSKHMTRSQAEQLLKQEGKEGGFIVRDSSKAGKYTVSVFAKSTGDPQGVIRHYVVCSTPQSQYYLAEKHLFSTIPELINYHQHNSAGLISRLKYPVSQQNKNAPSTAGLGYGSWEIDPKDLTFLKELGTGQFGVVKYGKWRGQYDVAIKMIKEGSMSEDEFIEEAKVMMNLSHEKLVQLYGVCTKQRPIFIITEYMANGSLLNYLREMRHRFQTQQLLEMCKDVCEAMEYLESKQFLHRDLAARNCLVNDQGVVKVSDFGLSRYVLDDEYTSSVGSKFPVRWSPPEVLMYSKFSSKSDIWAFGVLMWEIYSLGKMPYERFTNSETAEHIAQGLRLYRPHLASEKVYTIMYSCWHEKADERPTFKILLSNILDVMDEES
# Procedure, shortened: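 TMD-8, RAMOS or 293T BTK C481S cells were treated 24 h with compounds from 10-fold DMSO stock series (10 to 0.0001 mM). BTK was measured by Western blot with GAPDH/β-actin references. Activity was binned by concentration giving 50% degradation: +++ (0.0001-0.01 μM), ++ (0.01-1 μM), + (1-10 μM), − (>10 μM).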
# WT BTK protein = target: T2, WT BTK protein (Homo sapiens, UniProt Q06187); experiment: BTK protein degradation assay (Western blotting), WT BTK; type: cell-based; details: concentration range accounting for 50% degradation of WT BTK protein, TMD-8 or RAMOS cells, 24 hours
# T2 construct: measured for intracellular BTK protein levels by Western blotting; endogenous in cells; host or cells: TMD-8 or RAMOS cells
# T2 sequence (Q06187 whole entry): as the sequence (Q06187 whole entry C481S) above, with S481C counted along it
# Procedure, shortened: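 BTK levels were read by Western blotting (GAPDH and β-actin normalisers) in RIPA lysates of TMD-8 cells exposed to compounds for 24 h at 1×10^6 cells/mL. Results scored in ranges of the concentration producing 50% loss of WT BTK.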
Structure (SMILES),DC50 (C481S BTK protein),DC50 (WT BTK protein)
"Cc1cccc(C)c1Nc1nn(C)c2nc(Nc3ccc4c(c3)CN(C(=O)[C@@H]3CCCN3C(=O)CNc3ccc5c(c3)C(=O)N(C3CCC(=O)NC3=O)C5=O)CC4)ncc12 (stereo partly drawn) [Compound 35, 5-((2-((S)-2-(7-((3-((2,6-Dimethylphenyl)amino)-1-methyl-1H-pyrazolo[3,4-d]pyrimidin-6-yl)amino)-1,2,3,4-tetrahydroisoquinoline-2-carbonyl)pyrrolidin-1-yl)-2-oxoethyl)amino)-2-(2,6-dioxopiperidin-3-yl)isoindoline-1,3-dione]",0.01 to 1 µM,0.1 to 10 nM
"Cc1cccc(C)c1Nc1nn(C)c2nc(Nc3ccc4c(c3)CN(C(=O)CCOCCOCCOCCOCCNC(=O)CNc3ccc5c(c3)C(=O)N(C3CCC(=O)NC3=O)C5=O)CC4)ncc12 (centres unmarked) [Compound 22, N-(15-(7-((3-((2,6-dimethylphenyl)amino)-1-methyl-1H-pyrazolo[3,4-d]pyrimidin-6-yl)amino)-3,4-dihydroisoquinolin-2 (1H)-yl)-15-oxo-3,6,9,12-tetraoxapentadecyl)-2-((2-(2,6-dioxopiperidin-3-yl)-1,3-dioxoisoindolin-5-yl)amino)acetamide]",> 10 µM,0.1 to 10 nM
"Cc1cccc(C)c1Nc1nn(C)c2nc(Nc3ccc4c(c3)CN(CCOCCOCC(=O)Nc3ccc5c(c3)C(=O)N(C3CCC(=O)NC3=O)C5=O)CC4)ncc12 (centres unmarked) [Compound 23, 2-(2-(2-(7-((3-((2,6-Dimethylphenyl)amino)-1-methyl-1H-pyrazolo[3,4-d]pyrimidin-6-yl)amino)-3,4-dihydroisoquinolin-2 (1H)-yl)ethoxy)ethoxy)-N-(2-(2,6-dioxopiperidin-3-yl)-1,3-dioxoisoindolin-5-yl)acetamide]",1 to 10 µM,0.1 to 10 nM
"Cc1cccc(C)c1Nc1nn(C)c2nc(Nc3ccc4c(c3)CN(C(=O)CCCCCNc3cccc5c3C(=O)N(C3CCC(=O)NC3=O)C5=O)CC4)ncc12 (centres unmarked) [Compound 1, 4-((6-(7-((3-((2,6-Dimethylphenyl)amino)-1-methyl-1H-pyrazolo[3,4-d]pyrimidin-6-yl)amino)-3,4-dihydroisoquinolin-2 (1H)-yl)-6-oxohexyl)amino)-2-(2,6-dioxopiperidin-3-yl)isoindoline-1,3-dione]",> 10 µM,10 to 1000 nM
